Test results from paper PMC9052077 (Computational and Structural Biotechnology Journal, 2022).
“Also recorded” adds a separate entry of the source. Read-outs that look alike come from different tables or passages of the source.

Tested on: HK-2 cells
Assay: cells
Type: cell-based, human
Conditions: for IC50 value for HK-2 cells: 24 h
[1] = Homo sapiens, HK-2, 24 h, HK-2 cells, 24 h exposure, SRB assay, Table 1
[2] = Homo sapiens, HK-2, read-out: Activity IC50 (μM), HK-2 cells, Table 4
[3] = Homo sapiens, HK-2, read-out: Activity pIC50, HK-2 cells (converted), Table 4
[4] = Homo sapiens, HK-2, read-out: Bioactivity (μM), HK-2 cells, Table 3

Row | SMILES | IC50 [1] [µM] | IC50 [2] [µM] | IC50 [3] [µM] | IC50 [4] [µM] | IC50 value for HK-2 cells (HK-2 cells, SRB assay) | IC50 (HK-2 cells, 24 h exposure, SRB assay, Table 1) [µM] | Activity pIC50 (HK-2 cells, Table 4) | Actual value (pIC50) (HK-2 cells, converted from IC50 by eq 2, Table 3) | IC50 (read-out: Activity IC50, HK-2 cells, Table 4) [µM] | IC50 (read-out: Bioactivity, HK-2 cells, Table 3) [µM]
1 | COc1ccnc(C[S+]([O-])c2nc3ccc(OC(F)F)cc3[nH]2)c1OC (stereo not drawn) [Compound 11, Pantoprazole] | 300 | 300 | 302 | 300 |  |  |  |  |  | 
2 | C[C@@H]1[C@H](O)[C@@H](C)/C=C/C=C/C=C/C=C/C=C/C=C/C=C/[C@H](O[C@@H]2O[C@H](C)[C@@H](O)[C@H](N)[C@@H]2O)C[C@@H]2O[C@](O)(C[C@@H](O)C[C@@H](O)[C@H](O)CC[C@@H](O)C[C@@H](O)CC(=O)O[C@H]1C)C[C@H](O)[C@H]2C(=O)O [Compound 13, Amphotericin B] | 3.7 | 3.7 | 3.72 | 3.7 | unit digits |  |  |  |  | 
3 | N.N.[Cl][Pt][Cl] [Compound 12, Cisplatin] |  |  |  |  | micromolar of tens digit | 25.4 | 4.59 | 4.59 | 25.4 | 25.4
4 | C[C@@H]1Cc2c(Cl)cc(C(=O)N[C@@H](Cc3ccccc3)C(=O)O)c(O)c2C(=O)O1 [Compound 3, Ochratoxin A] | 46.1 | 46.1 | 45.7 | 46.1 | micromolar of tens digit |  |  |  |  | 
5 | CO[C@@]12[C@H](COC(N)=O)C3=C(C(=O)C(C)=C(N)C3=O)N1C[C@@H]1N[C@@H]12 [Compound 10, Mitomycin C] | 5.04 | 5.04 | 5.01 | 5.04 | unit digits; also recorded: micromolar of tens digit |  |  |  |  | 
6 | C=CC[C@@H]1/C=C(\C)C[C@H](C)C[C@H](OC)[C@H]2O[C@@](O)(C(=O)C(=O)N3CCCC[C@H]3C(=O)O[C@H](/C(C)=C/[C@@H]3CC[C@@H](O)[C@H](OC)C3)[C@H](C)[C@@H](O)CC1=O)[C@H](C)C[C@@H]2OC [Compound 9, Tacrolimus] | 49.4 | 49.4 | 49 | 49.4 | micromolar of tens digit |  |  |  |  | 
7 | C[C@@H](NCCCc1cccc(C(F)(F)F)c1)c1cccc2ccccc12 [Compound 8, Cinacalcet] | 17.1 | 17.1 | 17 | 17.1 | micromolar of tens digit |  |  |  |  | 
8 | C/C=C(/C)C(=O)O[C@H]1C(C)=C2[C@H]([C@@H]1OC(=O)CCCCCCC)[C@@](C)(OC(C)=O)C[C@H](OC(=O)CCC)[C@@]1(O)[C@H]2OC(=O)[C@@]1(C)O [Compound 1, Thapsigargin] | 0.18 | 0.18 | 0.182 | 0.18 |  |  |  |  |  | 
